Reference: ChEMBL document CHEMBL4616586, “Design, synthesis and biological evaluation of substituted flavones and aurones as potential anti-influenza agents” (Bioorg Med Chem, 2020)
The source made the active and inactive calls. The calls are words filed in the database; no cut-off is given here.

Legend:
[1] = Cytotoxicity against dog MDCK cells assessed as reduction in cell viability by MTT assay; assay type: cell-based, Canis lupus familiaris
Influenza A virus = assay: Antiviral activity against Influenza A virus (H1N1) infected in dog MDCK cells assessed as reduction in log2HA titer incubated for 3 to 4 days by CPE assay; assay type: functional, organism-based
[2] = target: Neuraminidase (Influenza A virus (A/Puerto Rico/8/1934(H1N1)), UniProt P03468); assay: Inhibition of Influenza A virus (H1N1) neuraminidase
[3] = Selectivity index, ratio of CC50 for dog MDCK cells to EC50 for Influenza A virus (H1N1) infected in dog MDCK cells; assay type: toxicity, cell-based; settings: read-out: Ratio CC50/EC50
[4] = target: Neuraminidase (Influenza A virus (A/Puerto Rico/8/1934(H1N1))) (UniProt P03468); assay: Non-competitive inhibition of Influenza A virus (H1N1) neuraminidase by Lineweaver-Burk plot analysis
Neuraminidase (Influenza A virus (A/Puerto Rico/8/1934(H1N1))), sequence (P03468 whole entry): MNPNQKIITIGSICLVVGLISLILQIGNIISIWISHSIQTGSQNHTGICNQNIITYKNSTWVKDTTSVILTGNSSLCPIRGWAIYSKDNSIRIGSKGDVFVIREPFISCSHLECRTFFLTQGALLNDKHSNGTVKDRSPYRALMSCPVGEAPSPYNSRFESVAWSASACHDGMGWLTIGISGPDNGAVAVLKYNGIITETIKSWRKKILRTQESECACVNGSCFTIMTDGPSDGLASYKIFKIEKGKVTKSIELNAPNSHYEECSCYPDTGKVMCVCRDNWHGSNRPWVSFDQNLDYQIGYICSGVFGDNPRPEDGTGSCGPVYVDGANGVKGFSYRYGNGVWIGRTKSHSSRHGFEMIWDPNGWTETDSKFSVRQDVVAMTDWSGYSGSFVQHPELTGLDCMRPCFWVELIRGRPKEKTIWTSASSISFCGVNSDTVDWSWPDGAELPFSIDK

Neuraminidase (Influenza A virus (A/Puerto Rico/8/1934(H1N1)), UniProt P03468), sequence (P03468 whole entry): as above

Compound | CC50 [1] [µM] | EC50 (Influenza A virus) [nM] | IC50 [2] [µM] | selectivity ratio [3] | inhibition [4]
COc1ccccc1-c1cc(=O)c2ccccc2o1 | 171 |  |  |  | 
CCC(CC)O[C@@H]1C=C(C(=O)O)C[C@H](N)[C@H]1NC(C)=O [OSELTAMIVIR CARBOXYLATE] | 713 | 7.1 |  |  | 
O=c1cc(-c2ccccc2Cl)oc2ccccc12 | 388 |  |  |  | 
COc1ccc(/C=C2\Oc3ccccc3C2=O)cc1 [4'-METHOXY-AURONE] | 169 | 35.3 | 37.5 | 4800 | Active
O=c1cc(-c2cccc(Cl)c2)oc2ccccc12 | 174 | 47.7 | 32.6 | 3650 | 
O=C1/C(=C/c2ccccc2Cl)Oc2ccccc21 | 339 |  |  |  | 
O=C1/C(=C/c2cccc([N+](=O)[O-])c2)Oc2ccccc21 | 396 |  |  |  | 
O=C1/C(=C/c2ccc(Cl)cc2)Oc2ccccc21 | 272 | 51.4 | 45.4 | 5300 | 
O=C1/C(=C/c2cccc(Cl)c2)Oc2ccccc21 | 26.9 |  |  |  | 
COc1cccc(/C=C2\Oc3ccccc3C2=O)c1 [3'-METHOXY-AURONE] | 7.81 |  |  |  | 
O=c1cc(-c2cccc([N+](=O)[O-])c2)oc2ccccc12 | 269 | 14.1 | 15.4 | 19100 | 
COc1ccc(-c2cc(=O)c3ccccc3o2)cc1 [4'-METHOXYFLAVONE] | 192 | 9.36 | 8.74 | 20500 | Active
O=C1/C(=C/c2ccc([N+](=O)[O-])cc2)Oc2ccccc21 | 213 | 46.3 | 41 | 4600 | 
O=c1c(O)c(-c2ccc(O)c(O)c2)oc2cc(O)cc(O)c12 [QUERCETIN] |  | 84.5 | 7.75 | 3010 | Active
O=c1cc(-c2ccc(Cl)cc2)oc2ccccc12 | 115 | 35.9 | 27.7 | 3210 | 
COc1ccccc1/C=C1\Oc2ccccc2C1=O [(Z)-2'-METHOXYAURONE] | 273 |  |  |  | 
COc1cccc(-c2cc(=O)c3ccccc3o2)c1 | 263 | 12.6 | 10.8 | 21000 | 
